Data reported in patent publication US11066649B2, “Method for inducing human cholangiocyte differentiation” (INSERM (INSTITUT NATIONAL DE LA SANTÉ ET DE LA RECHERCHE …, priority 2014, dated 2021).

Legend:
hESC-Chol [1] = experiment: Cellular Ca2+ imaging: intracellular Ca2+ increase after hormonal stimulation; type: cell-based, human; conditions: hESC-Chol at day 23, Fura2-AM loaded
Experimental: At day 17, differentiating hESC-Chols were plated on glass coverslips coated with type I collagen and differentiated further into cholangiocyte-like cells as described above. At day 23 hESC-Chols were loaded with 3 μM Fura2-AM (Invitrogen, F1201) in BDM medium (37° C. and 5% CO2), for 45 minutes. Cells were then washed twice, and transferred into a perfusion chamber placed on the stage of a Zeiss inverted microscope (Axiovert 35). Intracellular calcium increases were measured after stimulation with somatostatin (Eumedica), ATP (Sigma), or Acetylcholine (Sigma). Calcium imaging was performed as described previously.^41 Fluorescence images were collected by a charge-coupled device camera (Princeton), digitized and integrated in real time by an image processor (Metafluor, Princeton).
To assess the functionality of our hESC-Chol, they analyzed their response to Adenosine triphosphate (ATP), acetylcholine and Somatostatin, known to induce Ca^2+ increase in biliary cells via P2Y1 receptors,^5 M3 muscarinic receptor (AChR M3),^25 Somatostatin receptor type 2 (SSTR2)^26 respectively, as well as type III Inositol 1,4,5-triphosphate (InsP3) receptor (InsP3R), an intracellular Ca^2+ channel, which stimulates release of Ca^2+ from intracellular stores into the cytosol.^27

hepatic progenitors = experiment: Effect of periportal mesenchymal factors on commitment of hepatic progenitors toward cholangiocytes; type: cell-based, human; conditions: addition to hepatic progenitors; data not shown
[2] = system: hESC-derived differentiating cells; experiment: Ki67 staining of differentiating cells after addition of IL-6; type: cell-based, human; conditions: after addition of IL-6 (10 ng/ml)
Experimental: (§1) At days 10-12 of differentiation, hESC/hiPSC-hepatoblasts were harvested with cell dissociation buffer (0.1 mg/ml EDTA, 0.5 mg/ml BSA in PBS) and seeded onto 12-well collagen I-coated plates (BD Biosciences) with plating medium (William's E/Ham F12 1:1, 10% FBS (PAA Laboratories), 1 mg/ml fraction V fatty acid-free BSA (Sigma), 1 mM L-glutamine) for 4 hours. Cells were then incubated overnight with biliary differentiation medium (BDM) (William's E/Ham F12 1:1, 10^−5 M linoleic acid-Albumin (Sigma L9530), 5.10^−8 M 3,3′,5-Triiodo-L-thyronine (Sigma T2752), 0.2 IU Insulin, 6.10^−4 M Vitamin C (Boyer), […] (Sigma T5391), 1 mM sodium pyruvate (Gibco)). […]
Cells were fixed with 4% Paraformaldehyde for 15 minutes at room temperature and permeabilized with 0.5% Triton X-100 for 15 minutes, 3% BSA-PBS for 30 minutes at room temperature or with 0.2% saponin and 5% donkey serum for 45 minutes at room temperature. […] All the photographs were taken with a Leica HMR microscope (Leica Microsystems), inverted DMIRBE microscope (Leica) using a 20×/0.4 N Plan objective (leica) and a CoolSnapES N&B camera (Photometrics) driven by MetaVue software (Molecular devices), SP5 LEICA DMI 6000 CS Microscope (Leica, Germany) and treated with LAS AF 2.6.0 software, or ACT-1 Nikon software or Cellomics ArrayScan VTI HCS Reader.

HepaRG-HB = experiment: Effect of GH on HepaRG-hepatoblasts; type: cell-based, human; conditions: addition of GH; data not shown
Experimental: Independent culture experiments were performed 4 times.

hESC-Chol [3] = experiment: Expression of cholangiocyte markers in hESC-Chol after addition of NaBut; type: cell-based, human; conditions: addition of NaBut on hESC-Chol (1 μM, days 21 to 23)
Experimental: as §1
Total RNA was purified with an RNAeasy kit (Qiagen). cDNAs were obtained by using QuantiTect kit (Qiagen 204341) or the High Capacity cDNA Reverse Transcription Kit (Applied Biosystems, Carlsbad, Calif.) according to the manufacturer's instructions. The level of gene expression was measured and analyzed by real-time PCR over 40 cycles using Taqman universal master mix II and Taqman gene expression assays (Applied Biosystems) using an ABI-7000 real-time PCR system and ABI 7000 software. The expression level of CFTR TGR5 (GPBAR-1), SCTR, GGT1, SOX9, AQP1 and JAG was determined in relation to RPL13A, which served as a housekeeping gene. […]

HepaRG-Chol = conditions: VEGF-165 20 ng/ml for 2 days
Experimental: HepaRG-HB cultured in the reduced medium were treated for 2 days with IL-6 (10 ng/ml), then for 2 days with sodium taurocholate hydrate (10 nM) and then for 2 days with sodium taurocholate hydrate (10 nM) and sodium butyrate (1.8 μM) to prevent spontaneous differentiation along the hepatocytic lineage. Independent culture experiments were performed 4 times. For proliferation assay, VEGF-165 (20 ng/ml) (Promokine, C-64420) was added on HepaRG-Chol culture for 2 days. Immunostaining pictures were analyzed and quantification was assessed with Cell Health Profiling BioApplication from Cellomics software.

Nc1ncnc2c1ncn2[C@@H]1O[C@H](COP(=O)(O)OP(=O)(O)OP(=O)(O)O)[C@@H](O)[C@H]1O [ATP, Adenosine triphosphate]
percentage of responsive cells (Ca2+ increase) (hESC-Chol [1]): 70%±5

TGFβ1: Transforming growth factor beta 1
cell commitment toward cholangiocytes (hepatic progenitors): did not induce significant cell commitment

IL-6: polypeptide also known as B cell-stimulating factor 2; Uniprot P05231
Ki67-positive cycling cells [2]: up to 68%

GH: peptide hormone that stimulates growth and metabolism; Uniprot P01241
proliferation and differentiation of HepaRG-hepatoblasts (HepaRG-HB): did not improve

CC(=O)OCC[N+](C)(C)C [acetylcholine]
percentage of responsive cells (Ca2+ increase) (hESC-Chol [1]): 40%±4

CCCC(=O)[O-].[Na+] [NaBut, Sodium Butyrate]
expression of cholangiocyte markers (hESC-Chol [3]): did not significantly change

VEGF
cell commitment toward cholangiocytes (hepatic progenitors): did not induce significant cell commitment | increase in the number of cells in G2/M phases (HepaRG-Chol): two-fold increase

B1: BMP4: Bone morphogenetic protein 4; Uniprot P12644 (protein, UniProt P12644 293-408, looked up)
Bone morphogenetic protein 4: SPKHHSQRARKKNKNCRRHSLYVDFSDVGWNDWIVAPPGYQAFYCHGDCPFPLADHLNSTNHAIVQTLVNSVNSSIPKACCVPTELSAISMLYLDEYDKVVLKNYQEMVVEGCGCR
cell commitment toward cholangiocytes (hepatic progenitors): did not induce significant cell commitment
